Experiment [1] in a line: Experimental Allergic Encephalomyelitis (EAE) in rats. It counts as in vivo, rats (Lewis strain). Particulars: 25.0 mg/kg s.c. once every other day, day 1 through 10. From the text: The compounds of structure 1 inhibit the destruction of myelin sheath surrounding the axons of the central nervous system. This myelin destruction is characteristic in those individuals suffering from multiple sclerosis. By preventing the destruction of myelin in multiple sclerosis patients, the compounds of structure 1 will prevent or reduce the progressive nature of the disease, prevent or increase the length of time between the recurrent episodes of the disease, and prevent or suppress the formation of the scarlike, multiple sclerotic plaques characteristic of the disease. […] This myelin brings about an immune response in the individual in which the myelin sheath is destroyed. EAE is an experimental model of multiple sclerosis.
Effect of α-methyl-4-dimethylamino-2',5'-dimethoxychalcone on
Experimental Allergic Encephalomyelitis (EAE) In Rats
EAE was induced in rats as described by Rosenthal and Nagra, Proc. Soc.
Exp. Biol. Med. 125, 149 (1967). Lewis strain rats ranging in weight from
100-200 g were sensitized with encephalitogenic emulsion consisting of
homogenized spinal cord in complete Freund's adjuvant. The test compound
and hydrocortisone (HC) were administered in polyvinylpyrrolidone vehicle
The test compound was administered i.p. once daily from day 1 through day
10. […]
10. The incidence of paralysis was recorded and mean paralysis time was […]

The test system of experiment [2] is B16 Melanoma. The experiment is described as follows: Survival of B16 melanoma bearing mice. It is filed as in vivo. An excerpt:
(§1) The effect of a chalcone derivative of structure 1 to control the growth of tumor tissue can be assessed in standard animal tumor models, for example, in the following animal tumor modes: (a) L1210 leukemia in mice, (b) EMT6 tumor in Balb/C mice, (c) 7,12-dimethylbenzanthracene-induced (DMBA-induced) mammary tumor in rats, and (d) Morris 7288C or 5123 hepatoma in Buffalo rats.
(§2) (B) Effect of α-methyl-4-Dimethylamino-2',5'-dimethoxychalcone On
(§3) the Growth and Survival of B16 Melanoma Bearing Mice
(§4) 1 × 10^5 B16 melanoma cells/animal were injected (s.c.) or
(§5) (i.p.)? on day 0. Compounds suspended in 5 percent polyvinylpyrrolidone
(§6) (PVP) were administered once daily (i.p. ) from day 1-15. For tumor growt
and weighed. For survival studies the survival days of each animal was
noted and average survival was determined.

The test system of experiment [3] is L1210 Leukemia. The experiment is described as follows: Survival of L1210 leukemia in mice. It is filed as in vivo.
From the text: as §1
(C) Effect of α-methyl-4-Dimethylamino-2',5'-dimethoxychalcone
and Other Mitotic Inhibitors on the Survival of L1210 Leukemia in
1 × 10^5 leukemic cells/animal were inoculated (i.p.) on day
zero. The compounds were suspended or dissolved in 5% polyvinylpyrrolidon
(PVP) and administered once daily from day 1-9 (i.p.). The survival of th
animals was noted and average survival was determined.

The test system of experiment [4] is HeLa cells. The experiment in a line: Mitotic accumulation (mitotic arrest) of HeLa cells. It counts as cell-based. Particulars: Homo sapiens, read-out: MITOTIC ARREST Minimum Effectice Concentration.
Method: Exponentially growing human carcinoma (HeLa) cells are plated at a densit
of 1 × 10^4 cells/well in a 24 well plate. The compounds were
dissolved in dimethylsulfoxide and diluted with complete medium. The cell
were innoculated with the medium containing the test compound either for
hours or 1 hour. For the 1 hour test, the cells were washed twice and
further grown for 18 hours in the presence of drug free medium. The
mitotic cells in the supernatent were collected and were pooled with the
trypsinized cells and cytopreps were made on slides using a
cytocentrifuge. The slides were fixed with Carnoy's solution, stained wit
acetoorcein, and the mitotic index was determined.
Experiment [5] relates to HeLa cells. The experiment is described as follows: Growth inhibition of HeLa cells. The settings on record: Homo sapiens, 72 h, read-out: GROWTH INHIBITION IC50. It counts as cell-based. As to the method: For growth inhibition studies, exponentially growing HeLa cells were
incubated at a density of 1 × 10^5 cells/35 mm dish with a
number of dilutions of the test compound in the medium. The plates were
incubated at 37° C. in a CO2 incubation. At the end of 72
hours the cells were collected by trypinization and counted and the […]

Experiment [6] relates to P388 Leukemia. The experiment in a line: Survival of P388 leukemia bearing mice. It is filed as in vivo.
From the text: as §1
(A) Effect of α-methyl-4-Dimethylamino-2',5'-dimethoxychalcone
on the Survival of P388 Leukemia Bearing Mice
1 × 10^5 P388 leukemia cells/animal were inoculated (i.p.) on
day zero. Compound was suspended in 5% polyvinylpyrrolidone (PVP) and was
administered (i.p.) once daily from day 1-9. The survival of the animals
was noted and the average survival was determined.

The test system of experiment [7] is B16 Melanoma. The experiment is described as follows: Growth of B16 melanoma in mice (tumor weight). It counts as in vivo. The settings on record: for TUMOR GROWTH (Mean ± S.E., n = 10): tumors weighed day 18.
From the text: as §1, §2, §3, §4, §5, §6
studies the animals were sacrificed on day 18, the tumors were excised,
and weighed. For survival studies the survival days of each animal was […]

Experiment [8] deals with Human Choriotrophoblast Tumor (JAr). The experiment is described as follows: Growth of human choriotrophoblast tumor (JAr) in athymic mice. It counts as in vivo.
From the text: as §1
(D) Effect of α-methyl-4-Dimethylamino-2',5'-
dimethoxychalcone On the Growth of Human
Choriotrophoblast Tumor (JAr) In Athymic Mice
JAr cells (1.5 × 10^6 cells/animal) were injected (s.c.) on day
zero. The compound, 4dimethylamino-2',5dimethoxychalcone, was suspended i
5 per cent polyvinylpyrrolidone (PVP) and administered (i.p.) once daily
as indicated. At the end of 12 days the animals were sacrificed, tumors

The mark [9] stands for this setting: 0.2 mg/kg i.p. once daily day 1-15.
[10] abbreviates: 0.20 mg/kg i.p. once daily day 1-9.
Setting [11] is: 25 mg/kg i.p. once daily day 1-9.
Where [12] appears, read: 50 mg/kg i.p. once daily day 1-9.
The mark [13] stands for this setting: 12.5 mg/kg i.p. once daily day 1-15.
[14] abbreviates: 25 mg/kg i.p. once daily day 1-15.
The mark [15] stands for this setting: 50 mg/kg i.p. once daily day 1-15.
Setting [16] is: 6.25 mg/kg i.p. once daily day 1-9.
[17] abbreviates: 12.5 mg/kg i.p. once daily day 1-9.
The mark [18] stands for this setting: 25.0 mg/kg i.p. once daily day 1-9.
Where [19] appears, read: 50.0 mg/kg i.p. once daily day 1-9.
Setting [20] is: 25 mg/kg i.p. once daily, day 1-11.
[21] abbreviates: 25 mg/kg i.p. once daily, day 7-11.
Where [22] appears, read: 50 mg/kg i.p. once daily, day 1-11.
The mark [23] stands for this setting: 50 mg/kg i.p. once daily, day 7-11.

In brackets after ≈: the same amount, converted by molar mass. Read-outs that look alike come from different tables or passages of the source.

For the compound `C[C@]12CCC(=O)C=C1CC[C@@H]1[C@@H]2[C@@H](O)C[C@@]2(C)[C@H]1CC[C@]2(O)C(=O)CO` [HYDROCORTISONE, hydrocortisone], in experiment [1], the “PERCENT INCIDENCE OF PARALYSIS” value is reported as 74%. Besides, the “PARALYSIS TIME (Mean ± S.E.)” value in experiment [1] (significant at p < 0.01) stood at 11.0 ± 0.28 days.
Turning to `CC[C@]1(O)C[C@@H]2CN(CCc3c([nH]c4ccccc34)[C@@](C(=O)OC)(c3cc4c(cc3OC)N(C)[C@H]3[C@@](O)(C(=O)OC)[C@H](OC(C)=O)[C@]5(CC)C=CCN6CC[C@]43[C@@H]65)C2)C1` [VINBLASTINE, vinblastine, reference compound], in experiment [2] (setting [9]), the “PERCENT T/C (survival)” value is given as 180% and the “SURVIVAL (MEAN ± S.E., n = 10)” value is 25.2 ± 2.3 days. In experiment [3] (setting [10]), the “PERCENT T/C (survival)” value amounted to 140% and the “SURVIVAL TIME (Mean ± S.E., n = 20)” value amounted to 9.8 ± 0.4 days. Further, the minimal effective concentration in experiment [4] (6 h) was 0.0015 µg/mL. Also, the IC50 in experiment [5] is 0.015 µg/mL (≈ 0.0185 µM).
Consider `CC[C@]1(O)C[C@H]2CN(CCc3c([nH]c4ccccc34)[C@@](C(=O)OC)(c3cc4c(cc3OC)N(C=O)[C@H]3[C@@](O)(C(=O)OC)[C@H](OC(C)=O)[C@]5(CC)C=CCN6CC[C@]43[C@@H]65)C2)C1` [VINCRISTINE, vincristine, reference compound], for which, in experiment [3] (setting [10]), the “PERCENT T/C (survival)” value was 146% and the “SURVIVAL TIME (Mean ± S.E., n = 20)” value worked out at 10.2 ± 0.4 days.
For the compound `COc1ccc(OC)c(C(=O)C(C)=Cc2ccc(N(C)C)cc2)c1` [1-(2,5-dimethoxyphenyl)-3-[4-(dimethylamino)phenyl]-2-methyl-2-propen-1-one], the “PERCENT T/C (survival)” value came to 142% in experiment [6] (setting [11]); 141% in experiment [6] (setting [12]); 146% in experiment [2] (setting [13]); 183% in experiment [2] (setting [14]); 126% in experiment [3] (setting [16]); 137% in experiment [3] (setting [17]). Besides, the “PERCENT T/C (survival)” value worked out at 146% in experiment [3] (setting [18]) and 154% in experiment [3] (setting [19]). For the same compound, the “SURVIVAL TIME (Mean ± S.E., n = 10)” value in experiment [6] (setting [11]) was 16.0 ± 1.5 days; in experiment [6] (setting [12]) it was 15.8 ± 0.5 days. Further, the “PERCENT INHIBITION (tumor growth)” value in experiment [7] (setting [13]) worked out at 30%; in experiment [7] (setting [14]), 32%; in experiment [7] (setting [15]) it was 45%. In addition, the “TUMOR GROWTH (Mean ± S.E., n = 10)” value is 4.66 ± 0.56 g in experiment [7] (setting [13]), 4.5 ± 0.70 g in experiment [7] (setting [14]) and 3.66 ± 0.83 g in experiment [7] (setting [15]). For the same compound, the entries for the “SURVIVAL (MEAN ± S.E., n = 10)” value in experiment [2] (setting [13]) and in experiment [2] (setting [14]) were 20.4 ± 1.5 days and 25.6 ± 4.8 days, respectively. Also, the “SURVIVAL TIME (Mean ± S.E., n = 20)” value in experiment [3] (setting [16]) is 8.8 ± 0.2 days; in experiment [3] (setting [17]), 9.6 ± 0.3 days; in experiment [3] (setting [18]), 10.2 ± 0.2 days; in experiment [3] (setting [19]) it was 10.8 ± 0.4 days. The “PERCENT INHIBITION (tumor weight)” value is on record as 29% in experiment [8] (setting [20]), 21% in experiment [8] (setting [21]), 65% in experiment [8] (setting [22]) and 31% in experiment [8] (setting [23]). Also, the “TUMOR WEIGHT (Means ± S.E., n = 6)” value in experiment [8] (setting [20]) turned out to be 2.86 ± 0.38 g; in experiment [8] (setting [21]) it was 3.19 ± 0.61 g; in experiment [8] (setting [22]), 1.41 ± 0.32 g; in experiment [8] (setting [23]), 2.70 ± 0.36 g. The minimal effective concentration stood at 0.06 µg/mL in experiment [4] (1 hour, then washed and grown 18 hours in drug free medium); 0.0038 µg/mL in experiment [4] (6 hours).

Source of the values: US4904697A, “Controlling the growth of certain tumor tissue with chalcone derivatives” (Merrell Dow Pharmaceuticals Inc., priority 1987, dated 1990).
